Active and inactive are the calls of the source. The rule behind the calls is not given here.
What was measured:
[1] = target: T1, Lipoprotein lipase (Homo sapiens) (UniProt P06858); assay: Agonist activity at lipoprotein lipase (unknown origin) using p-nitrophenylbutyrate as substrate by spectrophotometric analysis relative to control; parameters: concentration or dose not given beside the values
T1 sequence (whole entry): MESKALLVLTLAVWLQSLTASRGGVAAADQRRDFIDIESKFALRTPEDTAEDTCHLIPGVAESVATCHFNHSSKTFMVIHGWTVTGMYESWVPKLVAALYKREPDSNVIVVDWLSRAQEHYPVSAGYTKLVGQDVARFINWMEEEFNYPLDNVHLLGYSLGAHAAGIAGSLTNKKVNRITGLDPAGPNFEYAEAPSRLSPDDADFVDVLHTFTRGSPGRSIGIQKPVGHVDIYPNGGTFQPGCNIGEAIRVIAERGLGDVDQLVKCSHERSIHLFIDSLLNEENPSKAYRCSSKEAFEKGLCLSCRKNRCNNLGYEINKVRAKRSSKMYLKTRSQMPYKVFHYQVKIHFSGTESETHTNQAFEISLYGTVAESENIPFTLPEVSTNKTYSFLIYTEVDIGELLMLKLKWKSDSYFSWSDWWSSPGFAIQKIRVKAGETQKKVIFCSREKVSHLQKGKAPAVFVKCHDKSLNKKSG

[2] = target: T1, Lipoprotein lipase (Homo sapiens); assay: Activation of lipoprotein lipase (unknown origin) assessed as reversal of ANGPTL4-mediated enzyme inhibition treated with ANGPTL4 for 30 mins followed by substrate addition measured after 20 mins by spectrophotometric analysis
[3] = target: T1, Lipoprotein lipase (Homo sapiens); assay: Agonist activity at lipoprotein lipase (unknown origin) using p-nitrophenylbutyrate as substrate at 40 uM by spectrophotometric analysis
[4] = target: T1, Lipoprotein lipase (Homo sapiens); assay: Agonist activity at lipoprotein lipase (unknown origin) using p-nitrophenylbutyrate as substrate by spectrophotometric analysis
[5] = target: T1, Lipoprotein lipase (Homo sapiens); assay: Agonist activity at lipoprotein lipase (unknown origin) using p-nitrophenylbutyrate as substrate by spectrophotometric analysis relative to NO-1886

Structure (SMILES)	Activity [1] [%]	Activity [2]	Activity [3]	Activity [4]	fold change (FC) [5]
CC1(C(=O)NCCCn2ccnc2)CC1(Cl)Cl (configuration not stated)	196	Dose-dependent effect	Active	Dose-dependent effect	
Cc1cn(CCCNC(=O)C2(C)CC2(Br)Br)cn1 (configuration not stated)	113				
CCOP(=O)(Cc1ccc(C(=O)Nc2ccc(Br)cc2C#N)cc1)OCC	170	inactive			
CC1(C(=O)NCCCn2cnc(Cl)c2)CC1(Br)Br (configuration not stated)	122				
CC1(C)CC1(C(=O)NCCCn1ccnc1)c1ccc(F)cc1 (configuration not stated)	342	Dose-dependent effect			2
CC1(C(=O)NCCCN2CCOCC2)CC1(Br)Br (configuration not stated)	130				

Reference: ChEMBL document CHEMBL3259798, “A novel Lipoprotein lipase (LPL) agonist rescues the enzyme from inhibition by angiopoietin-like 4 (ANGPTL4)” (Bioorg Med Chem Lett, 2014)
